Measurements published in ChEMBL document CHEMBL1914343, “Recent progress in synthesis and bioactivity studies of indolizines” (Eur J Med Chem, 2011).
In brackets after ≈: the same amount, converted by molar mass. Activity calls are given as the source filed them. No cut-off for these calls is given here.

Columns and labels:
[1] = Antioxidant activity assessed as inhibition of lipid peroxidation after 30 mins; assay type: functional
[2] = Inhibition of soybean arachidonate 15-lipoxygenase; design: species or system Glycine max
[3] = target: T1, Polyunsaturated fatty acid lipoxygenase ALOX15 (Oryctolagus cuniculus, UniProt P12530); assay: Inhibition of rabbit reticulocytes arachidonate 15-lipoxygenase
T1 sequence (P12530 whole entry): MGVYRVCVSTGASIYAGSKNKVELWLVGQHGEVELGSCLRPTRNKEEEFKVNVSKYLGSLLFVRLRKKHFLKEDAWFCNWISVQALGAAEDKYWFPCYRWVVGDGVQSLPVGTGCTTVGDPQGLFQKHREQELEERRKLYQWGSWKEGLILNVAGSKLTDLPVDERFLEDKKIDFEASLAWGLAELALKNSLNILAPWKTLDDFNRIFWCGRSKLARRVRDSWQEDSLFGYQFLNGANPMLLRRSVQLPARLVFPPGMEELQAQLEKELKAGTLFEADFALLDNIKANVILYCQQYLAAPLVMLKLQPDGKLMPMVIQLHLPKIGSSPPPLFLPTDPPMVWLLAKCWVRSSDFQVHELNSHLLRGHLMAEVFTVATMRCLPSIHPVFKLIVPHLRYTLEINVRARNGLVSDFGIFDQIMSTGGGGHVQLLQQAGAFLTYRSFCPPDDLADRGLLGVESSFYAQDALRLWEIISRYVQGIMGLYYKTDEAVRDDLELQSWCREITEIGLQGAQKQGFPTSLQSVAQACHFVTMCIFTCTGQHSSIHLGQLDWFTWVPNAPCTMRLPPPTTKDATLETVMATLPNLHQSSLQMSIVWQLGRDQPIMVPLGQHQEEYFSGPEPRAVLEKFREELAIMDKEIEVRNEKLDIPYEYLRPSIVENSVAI

Estrogen receptor = target: T2, Estrogen receptor (Homo sapiens, UniProt P03372)
T2 sequence (P03372 whole entry): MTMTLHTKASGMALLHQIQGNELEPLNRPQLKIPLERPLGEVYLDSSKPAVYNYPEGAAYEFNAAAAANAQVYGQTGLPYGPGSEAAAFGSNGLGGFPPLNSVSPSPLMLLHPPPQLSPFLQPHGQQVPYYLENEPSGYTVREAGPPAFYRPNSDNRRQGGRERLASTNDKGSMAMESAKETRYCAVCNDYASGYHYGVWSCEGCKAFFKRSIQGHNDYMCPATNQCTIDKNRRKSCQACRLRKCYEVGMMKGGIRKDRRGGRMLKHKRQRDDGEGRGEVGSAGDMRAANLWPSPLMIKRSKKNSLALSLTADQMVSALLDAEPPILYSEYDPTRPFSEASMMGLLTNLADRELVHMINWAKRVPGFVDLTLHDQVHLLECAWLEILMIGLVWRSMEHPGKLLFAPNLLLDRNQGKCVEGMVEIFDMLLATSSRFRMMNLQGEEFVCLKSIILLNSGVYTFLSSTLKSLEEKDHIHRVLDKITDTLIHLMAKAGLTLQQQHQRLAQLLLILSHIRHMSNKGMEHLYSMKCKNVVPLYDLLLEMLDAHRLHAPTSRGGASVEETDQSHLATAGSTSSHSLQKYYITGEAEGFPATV
Description: Agonist activity at estrogen receptor

[4] = test system: Mycobacterium tuberculosis; assay: Antimycobacterial activity against Mycobacterium tuberculosis H37Rv ATCC 27294 by microplate alamar blue assay; assay type: functional
[5] = test system: Mycobacterium tuberculosis; assay: Antimycobacterial activity against Mycobacterium tuberculosis H37Rv ATCC 27294 at 6.25 ug/mL by microplate alamar blue assay; assay type: functional
[6] = test system: Mycobacterium tuberculosis; assay: Antimycobacterial activity against Mycobacterium tuberculosis H37Rv by agar diffusion method; assay type: functional
[7] = test system: Radical scavenging activity; assay: Antioxidant activity assessed as DPPH radical scavenging activity at 667 uM after 15 mins; assay type: functional
Streptomyces albus = assay: Antibacterial activity against Streptomyces albus at 100 ug/mL; assay type: functional, organism-based
Aspergillus flavus = assay: Antifungal activity against Aspergillus flavus at 100 ug/mL; assay type: functional, organism-based
Escherichia coli = assay: Antibacterial activity against Escherichia coli at 100 ug/mL; assay type: functional, organism-based
Candida albicans = assay: Antifungal activity against Candida albicans at 100 ug/mL; assay type: functional, organism-based
Mus musculus [8] = assay: Antiinflammatory activity in […] mouse assessed as inhibition of carrageenan-induced edema after 2 hrs relative to control; assay type: functional
Mus musculus [9] = assay: Antiinflammatory activity in […] mouse assessed as inhibition of carrageenan-induced edema after 3 hrs relative to control; assay type: functional
[10] = test system: Mycobacterium tuberculosis; assay: Ratio MIC for ciprofloxacin to compound for Mycobacterium tuberculosis H37Rv by agar diffusion method; assay type: functional
[11] = test system: Mycobacterium tuberculosis; assay: Ratio MIC for ethambutol to compound for Mycobacterium tuberculosis H37Rv by agar diffusion method; assay type: functional
Substance-P receptor = Substance-P receptor (Homo sapiens, UniProt P25103); assay: Antagonist activity at human NK1 receptor expressed in CHO cells assessed as inhibition of SP-induced intracellular Ca2+ increase by Fura-2 assay; assay type: functional, cell-based; conditions: read-out: pA2 (converted)
Substance-K receptor = target: T3, Substance-K receptor (Homo sapiens, UniProt P21452); assay: Antagonist activity at human NK2 receptor expressed in CHO cells assessed as inhibition of Neurokinin A-induced increase in intracellular Ca2+ increase by Fura-2 assay; assay type: functional, cell-based; conditions: read-out: pA2 (converted)
T3 sequence (P21452 whole entry): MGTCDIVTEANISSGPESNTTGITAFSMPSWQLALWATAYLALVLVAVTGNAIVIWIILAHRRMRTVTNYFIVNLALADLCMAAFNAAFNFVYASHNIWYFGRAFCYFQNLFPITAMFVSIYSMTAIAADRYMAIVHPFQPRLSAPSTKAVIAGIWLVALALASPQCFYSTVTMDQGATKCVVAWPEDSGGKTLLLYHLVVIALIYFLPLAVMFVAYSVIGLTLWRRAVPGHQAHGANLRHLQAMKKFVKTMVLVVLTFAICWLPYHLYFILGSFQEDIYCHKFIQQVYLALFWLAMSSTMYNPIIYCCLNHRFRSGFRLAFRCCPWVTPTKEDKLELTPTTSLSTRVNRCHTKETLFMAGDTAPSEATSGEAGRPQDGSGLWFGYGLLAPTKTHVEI

[12] = Half life in human liver microsomes; assay type: ADME, Microsome
Pichia kudriavzevii = assay: Antifungal activity against Candida krusei at 32 ug/mL; assay type: functional, organism-based
Plasmodium falciparum = assay: Antiplasmodial activity against Plasmodium falciparum; assay type: functional
[13] = test system: Trypanosoma brucei rhodesiense; assay: Antitrypanosomal activity against Trypanosoma brucei rhodesiense; assay type: functional
Leishmania donovani = assay: Antileishmanial activity against Leishmania donovani; assay type: functional
Trypanosoma cruzi = assay: Antitrypanosomal activity against Trypanosoma cruzi; assay type: functional
[14] = Apparent permeability across human Caco2 cells; assay type: ADME, cell-based; conditions: Caco-2
Albumin = Albumin (Homo sapiens, UniProt P02768); assay: Binding affinity to human serum albumin; assay type: ADME; conditions: isolated protein
Histamine H3 receptor [15] = target: Histamine H3 receptor (Homo sapiens, UniProt Q9Y5N1); assay: Antagonist activity at human histamine H3 receptor expressed in […] cells; assay type: functional, cell-based, SK-N-MC; conditions: read-out: pA2 (converted)
Histamine H3 receptor [16] = target: Histamine H3 receptor (Rattus norvegicus, UniProt Q9QYN8); assay: Antagonist activity at rat histamine H3 receptor expressed in […] cells; assay type: functional, cell-based, SK-N-MC; conditions: read-out: pA2 (converted)
Sequence of Histamine H3 receptor (Rattus norvegicus, UniProt Q9QYN8) (Q9QYN8 whole entry): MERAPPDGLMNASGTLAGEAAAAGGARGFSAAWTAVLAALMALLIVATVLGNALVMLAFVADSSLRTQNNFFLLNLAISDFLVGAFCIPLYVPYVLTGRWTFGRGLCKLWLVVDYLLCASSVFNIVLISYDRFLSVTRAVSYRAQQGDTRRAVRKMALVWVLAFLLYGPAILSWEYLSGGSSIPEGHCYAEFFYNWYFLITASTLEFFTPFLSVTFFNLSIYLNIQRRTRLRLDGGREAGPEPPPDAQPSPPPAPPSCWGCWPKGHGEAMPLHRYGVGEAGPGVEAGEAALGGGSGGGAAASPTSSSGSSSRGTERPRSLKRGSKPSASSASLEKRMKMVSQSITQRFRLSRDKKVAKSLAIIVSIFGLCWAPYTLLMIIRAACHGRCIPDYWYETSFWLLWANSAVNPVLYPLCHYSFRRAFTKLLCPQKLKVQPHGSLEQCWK

Sequence of Substance-P receptor (P25103 whole entry): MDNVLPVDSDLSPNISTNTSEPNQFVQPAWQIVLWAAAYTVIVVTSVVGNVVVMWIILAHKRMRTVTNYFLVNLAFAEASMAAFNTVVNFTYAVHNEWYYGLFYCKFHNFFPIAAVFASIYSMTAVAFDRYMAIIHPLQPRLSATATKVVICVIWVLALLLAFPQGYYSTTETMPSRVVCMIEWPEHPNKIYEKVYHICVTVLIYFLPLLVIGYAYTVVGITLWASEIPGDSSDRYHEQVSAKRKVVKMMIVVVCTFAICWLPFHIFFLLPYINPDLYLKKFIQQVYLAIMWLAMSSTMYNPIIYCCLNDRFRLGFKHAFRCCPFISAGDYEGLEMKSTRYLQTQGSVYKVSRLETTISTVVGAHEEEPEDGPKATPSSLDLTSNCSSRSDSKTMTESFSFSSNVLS
Sequence of Histamine H3 receptor (Homo sapiens, UniProt Q9Y5N1) (Q9Y5N1 whole entry): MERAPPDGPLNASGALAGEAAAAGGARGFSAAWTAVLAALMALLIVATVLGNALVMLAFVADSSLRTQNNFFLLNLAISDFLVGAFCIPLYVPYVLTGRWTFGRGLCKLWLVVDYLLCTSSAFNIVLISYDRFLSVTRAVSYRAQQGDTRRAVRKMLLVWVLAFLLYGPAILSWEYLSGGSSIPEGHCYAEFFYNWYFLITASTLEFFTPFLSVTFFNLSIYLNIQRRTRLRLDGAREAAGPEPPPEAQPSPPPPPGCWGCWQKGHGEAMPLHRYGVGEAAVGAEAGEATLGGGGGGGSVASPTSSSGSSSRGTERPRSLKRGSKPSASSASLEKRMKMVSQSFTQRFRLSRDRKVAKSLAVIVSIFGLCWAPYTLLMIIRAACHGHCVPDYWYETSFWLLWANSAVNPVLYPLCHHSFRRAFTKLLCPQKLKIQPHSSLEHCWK
Sequence of Albumin (P02768 whole entry): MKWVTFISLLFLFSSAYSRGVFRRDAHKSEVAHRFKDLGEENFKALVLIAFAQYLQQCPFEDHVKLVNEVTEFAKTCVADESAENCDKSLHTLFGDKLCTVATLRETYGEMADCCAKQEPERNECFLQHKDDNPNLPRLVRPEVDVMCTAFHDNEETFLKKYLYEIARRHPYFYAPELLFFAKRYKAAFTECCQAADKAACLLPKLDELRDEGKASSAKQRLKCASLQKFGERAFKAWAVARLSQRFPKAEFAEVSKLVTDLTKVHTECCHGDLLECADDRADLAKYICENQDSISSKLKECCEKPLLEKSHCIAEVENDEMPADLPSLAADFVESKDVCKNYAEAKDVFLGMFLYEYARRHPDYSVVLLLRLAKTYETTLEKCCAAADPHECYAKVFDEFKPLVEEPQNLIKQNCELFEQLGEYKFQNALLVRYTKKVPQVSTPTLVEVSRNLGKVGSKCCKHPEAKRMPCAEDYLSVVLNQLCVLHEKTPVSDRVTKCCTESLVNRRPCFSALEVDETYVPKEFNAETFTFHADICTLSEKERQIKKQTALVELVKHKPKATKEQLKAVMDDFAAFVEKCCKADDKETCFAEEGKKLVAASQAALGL

Compound: Cc1ccc(S(=O)(=O)Oc2c(-c3ccccc3)c(-c3ccccc3)n3ccc(C#N)cc23)cc1
- IC50 [1]: 3.64 µM
- IC50 [2]: 17 µM
- IC50 [3]: 25 µM

Compound: CCc1c(-c2ccc(O)cc2)c2ccc3cccc1n32
- IC50 (Estrogen receptor): 0.0095 µM

Compound: N#Cc1ccn2c(-c3ccccc3)c(-c3ccccc3)c(C(O)C3CCCCC3)c2c1 (centres undefined)
- MIC [4]: > 6.25 µg/mL
- IC50 [2]: 23 µM

Compound: CC(=O)c1c(-c2ccccc2)c(-c2ccccc2)n2ccc(C#N)cc12
- IC50 [1]: > 100 µM
- inhibition at 6.25 µg/mL [5]: 21%
- IC50 [2]: 23 µM
- IC50 [3]: 44 µM

Compound: N#Cc1c(-c2ccc(F)cc2)c([N+](=O)[O-])c2c3ccccc3ccn12
- MIC [6]: 3.9 µM (≈ 1.29 µg/mL)

Compound: Cc1ccc(C(O)c2c(-c3ccccc3)c(-c3ccccc3)n3ccc(C#N)cc23)cc1 (centres undefined)
- inhibition at 6.25 µg/mL [5]: 90%
- MIC [4]: 6.25 µg/mL (≈ 15.1 µM)
- IC50 [2]: 22 µM

Compound: CC(=O)Oc1c(-c2ccccc2)c(-c2ccccc2)n2ccc(C#N)cc12
- IC50 [1]: 0.15 µM
- IC50 [2]: 31 µM
- Activity [7]: -0.5%
- IC50 [3]: 75 µM

Compound: c1csc(-c2cc3ccccn3c2)c1
- Activity (Streptomyces albus): Active
- Activity (Aspergillus flavus): inactive
- Activity (Escherichia coli): Active
- Activity (Candida albicans): Active

Compound: CC(C)Cc1ccc(C(C)C(=O)O)cc1 (centres undefined) [IBUPROFEN]
- inhibition (INH) (Mus musculus [8]): 59%
- inhibition (INH) (Mus musculus [9]): 62%

Compound: CCOC(=O)c1c(-c2ccc(F)cc2)cc2c3ccccc3ccn12
- MIC [6]: 1 µM (≈ 0.333 µg/mL)
- Ratio [10]: 4.7
- Ratio [11]: 7.6

Compound: COC(=O)C1=C2CCC(C(=O)N[C@@H](CCc3c[nH]c4ccccc34)C(=O)N(C)Cc3ccccc3)N2C(=O)C(NC(=O)OCc2ccccc2)C1 (some centres undefined)
- Kb (Substance-P receptor): 0.2 µM
- Kb (Substance-K receptor): 0.2 µM

Compound: Cc1c(-c2ccc(OCCCN3CCCCC3)cc2)cc2ccccn12
- half-life [12]: 54 min

Compound: COc1ccc(-c2c(-c3ccccc3)c(-c3ccccc3)n3ccc(C#N)cc23)cc1
- IC50 [1]: > 100 µM
- IC50 [2]: 20 µM
- Activity [7]: -0.9%
- IC50 [3]: 37 µM

Compound: N#Cc1ccn2c(-c3ccccc3)c(-c3ccccc3)cc2c1
- IC50 [1]: > 100 µM
- inhibition at 6.25 µg/mL [5]: 9%
- IC50 [2]: 30 µM
- Activity [7]: -0.2%
- IC50 [3]: 51 µM

Compound: N#Cc1ccn2c(-c3ccccc3)c(-c3ccccc3)c(C(O)c3ccccc3)c2c1 (centres undefined)
- IC50 [1]: 35.8 µM
- inhibition at 6.25 µg/mL [5]: 100%
- Activity (Pichia kudriavzevii): inactive
- MIC (Plasmodium falciparum): 2.3 µg/mL (≈ 5.74 µM)
- MIC [13]: 12 µg/mL (≈ 30 µM)
- MIC (Leishmania donovani): 2.3 µg/mL (≈ 5.74 µM)
- MIC [4]: 6.25 µg/mL (≈ 15.6 µM)
- IC50 [2]: 35 µM
- MIC (Trypanosoma cruzi): 3.2 µg/mL (≈ 7.99 µM)
- IC50 [3]: 48 µM

Compound: c1ccn2cc(-c3ccc(OCCCN4CCCCC4)cc3)cc2c1
- half-life [12]: 10 min
- Papp [14]: 14.1 ×10⁻⁶ cm/s
- Activity (Albumin): 50%
- Kb (Histamine H3 receptor [15]): 0.00316 µM
- Kb (Histamine H3 receptor [16]): 0.0195 µM

Compound: N#Cc1ccn2c(-c3ccccc3)c(-c3ccccc3)c(OS(=O)(=O)C(F)(F)F)c2c1
- IC50 [1]: 0.6 µM
- IC50 [2]: 46 µM
- Activity [7]: 79.5%
- IC50 [3]: 59 µM

Compound: CCOC(=O)C1(C#N)C(c2ccc(Cl)cc2)=C(C(=O)c2cccs2)N2C(C)=CC=CC21 (centres undefined)
- Activity (Streptomyces albus): Active
- Activity (Aspergillus flavus): inactive
- Activity (Escherichia coli): Active
- Activity (Candida albicans): Active

Compound: COC(=O)c1cc(C(=O)c2cc3ccccc3o2)n2ccccc12
- inhibition (INH) (Mus musculus [8]): 36%

Compound: COC(=O)C1=C2CCC(C(=O)N[C@@H](CCc3c[nH]c4ccccc34)C(=O)N(C)Cc3ccccc3)N2C(=O)C(NC(C)=O)C1 (some centres undefined)
- Kb (Substance-P receptor): 0.126 µM
- Kb (Substance-K receptor): 0.631 µM

Compound: COc1c(-c2ccccc2)c(-c2ccccc2)n2ccc(C#N)cc12
- IC50 [1]: 22 µM
- IC50 [2]: 33 µM
- Activity [7]: -0.6%
- IC50 [3]: 77 µM

Compound: CC1=CC=CC2[C@@H]3C(=O)N(c4ccccc4)C(=O)[C@@H]3C(C(=O)c3cccs3)N12 (some centres undefined)
- Activity (Streptomyces albus): Active
- Activity (Aspergillus flavus): Active
- Activity (Escherichia coli): Active
- Activity (Candida albicans): Active

Compound: N#Cc1ccn2c(-c3ccccc3)c(-c3ccccc3)c(C(O)c3ccc(Cl)cc3)c2c1 (centres undefined)
- inhibition at 6.25 µg/mL [5]: 95%
- MIC [4]: 6.25 µg/mL (≈ 14.4 µM)
- IC50 [2]: 23 µM

Compound: CCOC(=O)c1c(-c2ccc(Cl)cc2)cc2c3ccccc3ccn12
- MIC [6]: 2.3 µM (≈ 0.805 µg/mL)

Compound: COC(=O)C1=C2CCC(C(=O)N[C@@H](CCc3c[nH]c4ccccc34)C(=O)NCc3cc(C(F)(F)F)cc(C(F)(F)F)c3)N2C(=O)C(NC(C)=O)C1 (some centres undefined)
- Kb (Substance-P receptor): 0.1 µM

Compound: N#Cc1cc(C(=O)c2cc3ccccc3o2)n2ccccc12
- inhibition (INH) (Mus musculus [9]): 24%
